Legend:
[1] = biological target: Avi-humanTEAD4^217-434 / Cy5 labeled humanYAP^60-100 (Homo sapiens (Human), UniProt Q15561); assay: In-vitro biochemical TR-FRET assay (TEAD4/YAP); format: binding; conditions: 1 h at room temperature
[2] = tested on: YAP-dependent transcription in NCI-H2052 Tet-On shYAP_2371 pLenti6 MCAT_Luc cells; assay: YAP reporter gene activity assay (MCAT-Luc), NCI-H2052; format: cell-based; conditions: Homo sapiens, 24 hrs
[3] = tested on: YAP-dependent transcription in SF268-MCAT_Luc_dox-i-shYAPLevy (Clone 13) cells; assay: YAP reporter gene activity assay (MCAT-Luc), SF268; format: cell-based; conditions: Homo sapiens, SF-268; SF268 MCAT_Luc, 24 hrs
[4] = tested on: MKN-45/Ubc-luc cells (unspecific inhibition of luciferase expression or activity); assay: Reporter gene assay specificity control (Ubc-Luc), MKN-45; format: cell-based; conditions: Homo sapiens; MKN-45/Ubc-luc specificity control, 24 hrs
Summary of the method: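 MKN-45 cells stably carrying a ubiquitin C promoter–firefly luciferase construct, treated the day after seeding with eleven 2-fold compound dilutions (0.1% DMSO final) for 24 hrs at 37° C. Luminescence read 5 min after Steady Glo addition; cell-free background subtracted, as a control for nonspecific luciferase inhibition.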

[5] = tested on: NCI-H2052 Tet-On shYAP_2371 pLenti6 MCAT_Luc cells; assay: Proliferation assay (resazurin/AlamarBlue), NCI-H2052; format: cell-based; conditions: Homo sapiens; NCI-H2052, 72 hours
[6] = tested on: SF268-MCAT_Luc_dox-i-shYAPLevy (Clone 13) cells; assay: Proliferation assay (resazurin/AlamarBlue), SF268; format: cell-based; conditions: Homo sapiens, SF-268; SF268, 72 hours
[7] = tested on: MKN-45/Ubc-luc cells; assay: Proliferation assay (resazurin/AlamarBlue), MKN-45; format: cell-based; conditions: Homo sapiens; MKN-45, 72 hours
Summary of the method: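 MKN-45 cells carrying constitutive Ubc-driven luciferase reporter, treated the day after seeding with eleven 2-fold dilutions (0.1% DMSO) for 72 h at 37 °C. Viability by resazurin, referenced to day-0 plate; GI50 from % growth (100 none, 0 stasis, −100 kill) and residual viability at top concentration.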

[8] = biological target: TEAD1-GFP in HEK293A cells (Homo sapiens (Human), UniProt P28347); assay: TEAD1 protein abundance flow cytometry assay in HEK293A; format: cell-based; conditions: HEK293A TEAD1-GFP-CHYSEL-mCherry sensor cells, 24 h, GFP signal by flow cytometry
Sequence of TEAD1-GFP in HEK293A cells (P28347 whole entry): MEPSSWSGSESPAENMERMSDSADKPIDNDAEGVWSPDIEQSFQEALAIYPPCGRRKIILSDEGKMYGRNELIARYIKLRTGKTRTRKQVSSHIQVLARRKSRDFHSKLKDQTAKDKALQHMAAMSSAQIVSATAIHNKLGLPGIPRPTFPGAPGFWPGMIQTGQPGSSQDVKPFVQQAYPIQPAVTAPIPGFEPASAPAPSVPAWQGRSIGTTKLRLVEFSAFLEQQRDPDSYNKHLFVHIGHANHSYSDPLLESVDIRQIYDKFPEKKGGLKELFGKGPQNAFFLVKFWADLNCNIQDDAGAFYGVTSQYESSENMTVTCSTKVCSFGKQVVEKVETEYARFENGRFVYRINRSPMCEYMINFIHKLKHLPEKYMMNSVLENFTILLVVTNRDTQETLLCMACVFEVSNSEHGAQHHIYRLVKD
Protocol: Degradation of TEAD1 was measured in HEK293A cells (Invitrogen R70507) expressing TEAD1-GFP and mCherry from a stably integrated bicistronic TEAD1-GFP-CHYSEL-mCherry construct. Reduction of the GFP signal measured by flow cytometry served as readout for TEAD1 degradation after degrader treatment.
Stable HEK293A sensor cells were maintained in complete growth medium (DMEM high Glucose+10% FCS+1% L-Glutamine+1% NEAA+1% NaPyr.+4 μg/mL blasticidin) with passaging performed twice per week. On Day 0, stable HEK293A sensor cells were seeded at 5,000 cells/well in a 96-well microtiter plate in 100 μL complete medium. On Day 1, cells were treated in duplicate with 10-point 1:3 dilution series of compound using the HP D300 Digital Dispenser (Tecan). DMSO concentrations were normalized across the plate to 0.1%. On Day 2, after 24 h of incubation at 37° C., treatment media was discarded, cells rinsed with 100 μL/well PBS and then detached using 40 μL trypsin/well for 5 min. Trypsin was neutralized with 100 μL/well PBS+20% FCS).
Flow cytometry was performed on the samples using the CytoFlex S (Beckman Coulter). Cell identification was then performed using forward (FSC) vs. side scatter (SSC) plots. Single cell discrimination was performed using SSC-Width (SSC-W) vs. SSC-Height (SSCH) plots. Median GFP values for 2,500 single cells were used to determine TEAD1 levels. Median GFP values from HEK293A were used as a background signal and thus defining 0% TEAD1 signal. Median GFP values from DMSO treated HEK293A TEAD1-GFP CHYSEL-mCherry were used to define 100%
TEAD1 signal for subsequent DC50 curves (concentration at 50% TAED1 degradation). GFP and RFP were read in the channels called FITC and PE, respectively. Concentration response curves plotting relative reduction of the GFP signal (measured by flow cytometry) versus 10 compound concentrations (starting concentration 10 μM, 3 fold dilution steps) of the compounds allowed generation of DC50 values.

Sequence of Avi-humanTEAD4^217-434 / Cy5 labeled humanYAP^60-100 (Q15561 217-434): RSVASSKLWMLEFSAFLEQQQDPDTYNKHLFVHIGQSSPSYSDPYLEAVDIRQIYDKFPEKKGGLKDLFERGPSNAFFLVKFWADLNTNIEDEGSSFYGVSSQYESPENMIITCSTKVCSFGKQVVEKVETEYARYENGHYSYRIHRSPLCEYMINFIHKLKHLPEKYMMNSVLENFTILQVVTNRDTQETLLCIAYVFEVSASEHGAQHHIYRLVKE

SMILES	IC50 [1]	IC50 [2]	IC50 [3]	IC50 [4]	GI50 [5]	GI50 [7]	DC50 [8]	GI50 [6]
COc1ccc(C(N)=O)c(-c2c(Cl)c(F)cc3c2[C@H](C)[C@@](CN[C@H]2CC[C@H](C(=O)NCCCCCc4cccc5c4CN(C4CCC(=O)NC4=O)C5=O)CC2)(c2ccccc2)O3)c1F (stereo partly drawn) [Example 31, 2-((2S,3S,4S)-5-chloro-2-((((1r,4S)-4-((5-(2-(2,6-dioxopiperidin-3-yl)-1-oxoisoindolin-4-yl)pentyl)carbamoyl)cyclohexyl)amino)methyl)-6-fluoro-3-methyl-2-phenyl-2,3-dihydrobenzofuran-4-yl)-3-fluoro-4-methoxybenzamide]	1.8 nM	1.9 nM	0.28 nM	> 20000 nM	6.6 nM	> 20000 nM	0.6 nM	19 nM
COc1ccc(C(N)=O)c(-c2c(Cl)c(F)cc3c2[C@H](C)[C@@](CN[C@H]2CC[C@H](C(=O)N4CCC(CC5CCN(C(=O)Cn6cccc(CN7CCC(=O)NC7=O)c6=O)CC5)CC4)CC2)(c2ccccc2)O3)c1F (atropisomer, axis not shown) [Example 16, 2-((2S,3S,4S)-5-chloro-2-((((1r,4S)-4-(4-((1-(2-(3-((2,4-dioxotetrahydropyrimidin-1(2H)-yl)methyl)-2-oxopyridin-1(2H)-yl)acetyl)piperidin-4-yl)methyl)piperidine-1-carbonyl)cyclohexyl)amino)methyl)-6-fluoro-3-methyl-2-phenyl-2,3-dihydrobenzofuran-4-yl)-3-fluoro-4-methoxybenzamide]	1.3 nM	14 nM	1.2 nM	> 2000 nM	52 nM	> 2000 nM	6 nM	64 nM
COc1ccc(C(=O)N2CCN(CC3CCN(CCNC(=O)[C@H]4CC[C@H](NC[C@]5(c6ccccc6)Oc6cc(F)c(Cl)c(-c7c(C(N)=O)ccc(OC)c7F)c6[C@@H]5C)CC4)CC3)CC2)cc1N1CCC(=O)NC1=O (atropisomer, axis not shown) [Example 3, 2-((2S,3S,4S)-5-chloro-2-((((1r,4S)-4-((2-(4-((4-(3-(2,4-dioxotetrahydropyrimidin-1(2H)-yl)-4-methoxybenzoyl)piperazin-1-yl)methyl)piperidin-1-yl)ethyl)carbamoyl)cyclohexyl)amino)methyl)-6-fluoro-3-methyl-2-phenyl-2,3-dihydrobenzofuran-4-yl)-3-fluoro-4-methoxybenzamide]	< 1 nM	98 nM	1.6 nM	> 20000 nM	320 nM	> 20000 nM	6 nM	54 nM
COc1ccc(C(=O)N2CCN(CC3CCN(C(=O)[C@H]4CC[C@H](NC[C@]5(c6ccccc6)Oc6cc(F)c(Cl)c(-c7c(C(N)=O)ccc(OC)c7F)c6[C@@H]5C)CC4)CC3)CC2)cc1N1CCC(=O)NC1=O (atropisomer, axis not shown) [Example 6, 2-((2S,3S,4S)-5-chloro-2-((((1r,4S)-4-(4-((4-(3-(2,4-dioxotetrahydropyrimidin-1(2H)-yl)-4-methoxybenzoyl)piperazin-1-yl)methyl)piperidine-1-carbonyl)cyclohexyl)amino)methyl)-6-fluoro-3-methyl-2-phenyl-2,3-dihydrobenzofuran-4-yl)-3-fluoro-4-methoxybenzamide]	1.5 nM	16 nM	0.5 nM	> 20000 nM	61 nM	> 20000 nM	2 nM	39 nM

More lines, main results first:

IC50 [1]	IC50 [2]	IC50 [3]	IC50 [4]	GI50 [5]	GI50 [7]	DC50 [8]	SMILES	GI50 [6]
2.1 nM	4.6 nM	0.41 nM	> 2000 nM	12 nM	> 2000 nM	0.5 nM	COc1ccc(C(N)=O)c(-c2c(Cl)c(F)cc3c2[C@H](C)[C@@](CN[C@H]2CC[C@H](C(=O)N4CCC(C5CCN(C(=O)COc6ccc(C)c(N7CCC(=O)NC7=O)c6)CC5)CC4)CC2)(c2ccccc2)O3)c1F (atropisomer, axis not shown) [Example 19, 2-((2S,3S,4S)-5-chloro-2-((((1r,4S)-4-(1′-(2-(3-(2,4-dioxotetrahydropyrimidin-1(2H)-yl)-4-methylphenoxy)acetyl)-[4,4′-bipiperidine]-1-carbonyl)cyclohexyl)amino)methyl)-6-fluoro-3-methyl-2-phenyl-2,3-dihydrobenzofuran-4-yl)-3-fluoro-4-methoxybenzamide]	29 nM
2.6 nM	10 nM	0.43 nM	> 20000 nM	38 nM	12500 nM	1 nM	COc1ccc(C(=O)N2CCC(C3CCN(C(=O)[C@H]4CC[C@H](NC[C@]5(c6ccccc6)Oc6cc(F)c(Cl)c(-c7c(C(N)=O)ccc(OC)c7F)c6[C@@H]5C)CC4)CC3)CC2)cc1N1CCC(=O)NC1=O (atropisomer, axis not shown) [Example 10, 2-((2S,3S,4S)-5-chloro-2-((((1r,4S)-4-(1′-(3-(2,4-dioxotetrahydropyrimidin-1(2H)-yl)-4-methoxybenzoyl)-[4,4′-bipiperidine]-1-carbonyl)cyclohexyl)amino)methyl)-6-fluoro-3-methyl-2-phenyl-2,3-dihydrobenzofuran-4-yl)-3-fluoro-4-methoxybenzamide]	30 nM
4 nM	1.3 nM	0.26 nM	> 2000 nM	2.5 nM	> 2000 nM	0.3 nM	COc1ccc(C(N)=O)c(-c2c(Cl)c(F)cc3c2[C@H](C)[C@@](CN[C@H]2CC[C@H](C(=O)N4CCC(CC5CCN(C(=O)COc6ccc(N7CCC(=O)NC7=O)c(C)c6)CC5)CC4)CC2)(c2ccccc2)O3)c1F (atropisomer, axis not shown) [Example 26, 2-((2S,3S,4S)-5-chloro-2-((((1r,4S)-4-(4-((1-(2-(4-(2,4-dioxotetrahydropyrimidin-1(2H)-yl)-3-methylphenoxy)acetyl)piperidin-4-yl)methyl)piperidine-1-carbonyl)cyclohexyl)amino)methyl)-6-fluoro-3-methyl-2-phenyl-2,3-dihydrobenzofuran-4-yl)-3-fluoro-4-methoxybenzamide]	12 nM
7 nM	4 nM	0.42 nM	> 2000 nM	22 nM	> 2000 nM	1 nM	COc1ccc(C(N)=O)c(-c2c(Cl)c(F)cc3c2[C@H](C)[C@@](CN[C@H]2CC[C@H](C(=O)N4CCC(OC5CCN(C(=O)COc6cc(-c7scnc7C)ccc6CNC(=O)[C@@H]6C[C@@H](O)CN6C(=O)[C@@H](NC(=O)C6(F)CC6)C(C)(C)C)CC5)CC4)CC2)(c2ccccc2)O3)c1F (atropisomer, axis not shown) [Example 38, (2S,4R)-N-(2-(2-(4-((1-((1S,4r)-4-((((2S,3S,4S)-4-(6-carbamoyl-2-fluoro-3-methoxyphenyl)-5-chloro-6-fluoro-3-methyl-2-phenyl-2,3-dihydrobenzofuran-2-yl)methyl)amino)cyclohexane-1-carbonyl)piperidin-4-yl)oxy)piperidin-1-yl)-2-oxoethoxy)-4-(4-methylthiazol-5-yl)benzyl)-1-((S)-2-(1-fluorocyclopropane-1-carboxamido)-3,3-dimethylbutanoyl)-4-hydroxypyrrolidine-2-carboxamide]	24 nM

Source: patent US20240382600A1, “BIFUNCTIONAL DEGRADERS COMPRISING A TEAD BINDER” (Novartis AG, priority 2021, published 2024)
